This assay deals with modified version of the GPR119 receptor (94% identity to human receptor). The assay is described as follows: cAMP production assay (LANCE cAMP kit, TR-FRET) in HEK-293 cells. Particulars: for cAMP production in HEK-293 cells: HEK-293 cells stably expressing modified GPR119, test compounds 0.2 nM to 10 μM, one-hour incubation at ambient temperature; for Fold over baseline: increase in cAMP relative to basal levels, agonist activity if 1.5-fold or greater. Type of assay: cell-based. The method in brief: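 Doxycycline-induced (1 μg/mL, overnight) HEK-293 cells expressing modified GPR119 were thawed, 2000 cells/well, and exposed to compounds (0.2 nM-10 μM final, 0.5% DMSO) for 1 h at ambient temperature in HBSS/HEPES/BSA. cAMP was measured by LANCE TR-FRET against a standard curve. Agonism was defined as ≥1.5-fold over basal.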
In general terms: Cyclic AMP is a second messenger, typically raised through Gs and lowered through Gi signalling.

SMILES strings stand for the structures. Structures can show the parent of a compound that is named as a salt.

Regarding `CCc1cnc(N2CCC(N3CCC[C@H](Nc4ncc(C(F)(F)F)cc4Cl)C3=O)CC2)nc1` [Example 76, (S)-3-(3-chloro-5-(trifluoromethyl)pyridin-2-ylamino)-1′-(5-ethylpyrimidin-2-yl)-[1,4′-bipiperidin]-2-one], the “cAMP production in HEK-293 cells” value stood at 5.9 nmol and the Fold over baseline is reported as 1.9.

Consider `CCc1cnc(N2CCC(N3CC[C@H](N(C)c4cc(F)c(S(C)(=O)=O)cc4F)C3=O)CC2)nc1` [Example 37, (S)-3-((2,5-difluoro-4-(methylsulfonyl)phenyl)(methyl)amino)-1-(1-(5-ethylpyrimidin-2-yl)piperidin-4-yl)pyrrolidin-2-one trifluoroacetate], for which the “cAMP production in HEK-293 cells” value turned out to be 23.4 nmol and the Fold over baseline amounted to 3.4.

As to `CS(=O)(=O)c1cc(F)c(N[C@H]2CCN(C3CCN(c4ncc(Cl)cc4Cl)CC3)C2=O)c(F)c1` [Example 110, (S)-1-(1-(3,5-dichloropyridin-2-yl)piperidin-4-yl)-3-(2,6-difluoro-4-(methylsulfonyl)phenyl-amino)pyrrolidin-2-one], the “cAMP production in HEK-293 cells” value worked out at 29.3 nmol and the Fold over baseline worked out at 2.3.

Consider `CS(=O)(=O)c1ccc(N[C@H]2CCN(C3CCN(c4ccc(C(F)(F)F)cn4)CC3)C2=O)c(F)c1` [Example 103, (S)-3-(2-fluoro-4-(methyl-sulfonyl)phenylamino)-1-(1-(5-(trifluoromethyl)pyridin-2-yl)piperidin-4-yl)pyrrolidin-2-one], for which the “cAMP production in HEK-293 cells” value amounted to 15.4 nmol and the Fold over baseline is on record as 2.7.

Regarding `COC(=O)c1ccc(O[C@H]2CCN(C3CCN(c4ncc(C(F)(F)F)cc4Cl)CC3)C2=O)c(F)c1` [Example 140, (S)-methyl 4-(1-(1-(3-chloro-5-(trifluoro-methyl)pyridin-2-yl)piperidin-4-yl)-2-oxopyrrolidin-3-yloxy)-3-fluorobenzoate], the “cAMP production in HEK-293 cells” value worked out at 12.2 nmol and the Fold over baseline is 2.7.

For the compound `CCc1cnc(N2CCC(N3CCC[C@H](Nc4ccc(S(C)(=O)=O)c(Cl)c4)C3=O)CC2)nc1` [Example 56, (S)-3-(3-chloro-4-(methylsulfonyl)phen-ylamino)-1′-(5-ethylpyrimidin-2-yl)-[1,4′-bipiperidin]-2-one], the “cAMP production in HEK-293 cells” value came out at 18.0 nmol and the Fold over baseline worked out at 2.4.

With `CCc1cnc(N2CCC(N3CCCC[C@H](Nc4ccc(S(C)(=O)=O)cc4F)C3=O)CC2)nc1.Cl` [Example 79], the “cAMP production in HEK-293 cells” value turned out to be 18.0 nmol and the Fold over baseline was found to be 3.8.

Regarding `CS(=O)(=O)c1ccc(O[C@H]2CCN(C3CCN(c4ncc(Cl)cc4F)CC3)C2=O)cn1` [Example 144, (S)-1-(1-(5-chloro-3-fluoropyridin-2-yl)piperidin-4-yl)-3-(6-(methylsulfonyl)pyridin-3-yloxy)pyrrolidin-2-one], the “cAMP production in HEK-293 cells” value was determined as 19.6 nmol and the Fold over baseline is given as 2.9.

Take `N#Cc1ccc(N[C@H]2CCN(C3CCN(c4ncc(C(F)(F)F)cc4Cl)CC3)C2=O)nn1` [Example 150, (S)-6-(1-(1-(3-chloro-5-(trifluoromethyl)pyridin-2-yl)piperidin-4-yl)-2-oxopyrrolidin-3-ylamino)pyridazine-3-carbonitrile]: the “cAMP production in HEK-293 cells” value was 17.1 nmol and the Fold over baseline was found to be 3.4.

Consider `CS(=O)(=O)c1ccc(O[C@@H]2C(=O)N(C3CCN(c4cnc(Cl)cn4)CC3)C[C@@H]2O)c(F)c1` [Example 39, (3S,4S)-1-(1-(5-chloropyrazin-2-yl)piperidin-4-yl)-3-(2-fluoro-4-(methylsulfonyl)phenoxy)-4-hydroxypyrrolidin-2-one], for which the “cAMP production in HEK-293 cells” value amounted to 20.6 nmol and the Fold over baseline was 3.7.

Turning to `CS(=O)(=O)c1ccc(N[C@H]2CCN(C3CCN(c4ncc(-c5ccccc5)cn4)CC3)C2=O)c(F)c1` [Example 9, (S)-3-(2-fluoro-4-(methyl-sulfonyl)phenylamino)-1-(1-(5-phenylpyrimidin-2-yl)piperidin-4-yl)pyrrolidin-2-one], the “cAMP production in HEK-293 cells” value is 13.5 nmol and the Fold over baseline is reported as 2.3.

For `CCS(=O)(=O)c1ccc(N[C@H]2CCN(C3CCN(c4ncc(Cl)cc4F)CC3)C2=O)cn1` [Example 127, (S)-1-(1-(5-chloro-3-fluoropyridin-2-yl)piperidin-4-yl)-3-(6-(ethylsulfonyl)pyridin-3-ylamino)pyrrolidin-2-one], the “cAMP production in HEK-293 cells” value is 13.0 nmol and the Fold over baseline is listed as 2.7.

Consider `Cc1cc(S(C)(=O)=O)ncc1N[C@H]1CCN(C2CCN(c3ncc(Cl)cc3C#N)CC2)C1=O` [Example 122, (S)-5-chloro-2-(4-(3-(4-methyl-6-(methylsulfonyl)pyridin-3-ylamino)-2-oxopyrrolidin-1-yl)piperidin-1-yl) icotinonitrile], for which the “cAMP production in HEK-293 cells” value turned out to be 6.5 nmol and the Fold over baseline was determined as 1.5.

Regarding `CS(=O)(=O)c1ccc(N[C@H]2CCN(C3CCN(c4cnc(C(F)(F)F)nc4)CC3)C2=O)c(F)c1` [Example 158, (S)-3-(2-fluoro-4-(methylsulfonyl)phenylamino)-1-(1-(2-(trifluoromethyl)pyrimidin-5-yl)piperidin-4-yl)pyrrolidin-2-one], the “cAMP production in HEK-293 cells” value turned out to be 12.5 nmol and the Fold over baseline is listed as 3.2.

On to `CS(=O)(=O)c1cc(F)c(O[C@H]2CCN(C3CCN(c4ncc(-c5ccccc5)cn4)CC3)C2=O)cc1F` [Example 92, S-3-(2,5-difluoro-4-(methylsulfonyl)phenoxy)-1-(1-(5-phenylpyrimidin-2-yl)piperidin-4-yl)pyrrolidin-2-one], for which the “cAMP production in HEK-293 cells” value came to 16.6 nmol and the Fold over baseline came to 3.0.

Take `CS(=O)(=O)c1ccc(N[C@H]2CCN(C3CCN(c4ncc(Cl)cc4Cl)CC3)C2=O)c(F)c1` [Example 109, (S)-1-(1-(3,5-dichloropyridin-2-yl)piperidin-4-yl)-3-(2-fluoro-4-(methylsulfonyl)phenyl-amino)pyrrolidin-2-one]: the “cAMP production in HEK-293 cells” value amounted to 15.8 nmol and the Fold over baseline was 2.9.

As for `Cc1cnc(N2CCC(N3CC[C@H](Nc4ccc(S(C)(=O)=O)cc4F)C3=O)CC2)c(C#N)n1` [Example 134, (S)-3-(4-(3-(2-fluoro-4-(methylsulfonyl)phenyl-amino)-2-oxopyrrolidin-1-yl)piperidin-1-yl)-6-methylpyrazine-2-carbonitrile], the “cAMP production in HEK-293 cells” value came to 35.7 nmol and the Fold over baseline was determined as 2.7.

For the compound `CCc1ncc(N2CCC(N3CC[C@H](Nc4ccc(S(C)(=O)=O)cc4F)C3=O)CC2)cn1` [Example 159, (S)-1-(1-(2-ethylpyrimidin-5-yl)piperidin-4-yl)-3-(2-fluoro-4-(methylsulfonyl)phenylamino)pyrrolidin-2-one], the “cAMP production in HEK-293 cells” value was 8.0 nmol and the Fold over baseline stood at 2.0.

Take `CC1(C)CN(c2cnc(Cl)cn2)CCC1N1CC[C@H](Nc2ccc(S(C)(=O)=O)cc2F)C1=O` (stereo partly drawn) [Example 162, (3S)-1-(1-(5-chloropyrazin-2-yl)-3,3-dimethylpiperidin-4-yl)-3-(2-fluoro-4-(methylsulfonyl)phenylamino)pyrrolidin-2-one]: the “cAMP production in HEK-293 cells” value turned out to be 16.2 nmol and the Fold over baseline is recorded as 2.8.

Consider `CC(O)c1cnc(N2CCC(N3CCC[C@H](Nc4cc(F)c(S(C)(=O)=O)cc4F)C3=O)CC2)nc1` (stereo partly drawn) [Example 64, (3S)-3-(2,5-difluoro-4-(methylsulfonyl)phenylamino)-1′-(5-(1-hydroxyethyl)pyrimidin-2-yl)-[1,4′-bipiperidin]-2-one], for which the “cAMP production in HEK-293 cells” value came to 7.4 nmol and the Fold over baseline stood at 2.0.

For the compound `CS(=O)(=O)c1cc(F)c(N[C@H]2CCCN(C3CCN(c4ncc(Cl)cn4)CC3)C2=O)cc1F` [Example 50, (S)-1′-(5-chloropyrimidin-2-yl)-3-(2,5-difluoro-4-(methylsulfonyl)phenylamino)-[1,4′-bipiperidin]-2-one], the “cAMP production in HEK-293 cells” value was found to be 11.4 nmol and the Fold over baseline came to 2.3.

As for `CCc1cnc(N2CCC(N3CC[C@H](Nc4c(F)cc(S(C)(=O)=O)cc4F)C3=O)CC2)nc1` [Example 21, (S)-3-(2,6-difluoro-4-(methylsulfonyl)phenylamino)-1-(1-(5-ethylpyrimidin-2-yl)piperidin-4-yl)pyrrolidin-2-one], the “cAMP production in HEK-293 cells” value was determined as 6.6 nmol and the Fold over baseline was determined as 1.9.

For the compound `N#Cc1ccc(N[C@H]2CCN(C3CCN(c4ncc(C(F)(F)F)cc4Cl)CC3)C2=O)c(F)c1` [Example 152, (S)-4-(1-(1-(3-chloro-5-(trifluoromethyl)pyridin-2-yl)piperidin-4-yl)-2-oxopyrrolidin-3-ylamino)-3-fluorobenzonitrile], the “cAMP production in HEK-293 cells” value came to 26.6 nmol and the Fold over baseline is reported as 3.3.

On to `CS(=O)(=O)c1cc(F)c(N[C@H]2CCCN(C3CCN(c4cnc(Cl)cn4)CC3)C2=O)c(F)c1` [Example 65, (S)-1′-(5-chloropyrazin-2-yl)-3-(2,6-difluoro-4-(methylsulfonyl)phenylamino)-[1,4′-bipiperidin]-2-one], for which the “cAMP production in HEK-293 cells” value came out at 21.0 nmol and the Fold over baseline came out at 3.4.

As for `CCc1cnc(N2CCC(N3CCCC(Oc4cc(F)c(S(C)(=O)=O)cc4F)C3=O)CC2)nc1` (centres unmarked) [Example 26, 3-(2,5-difluoro-4-(methylsulfonyl)phenoxy)-1′-(5-ethylpyrimidin-2-yl)-1,4′-bipiperidin-2-one], the “cAMP production in HEK-293 cells” value turned out to be 19.1 nmol and the Fold over baseline worked out at 4.2.

For the origin of these results see patent publication US8754226B2, “Piperidinyl-substituted lactams as GPR119 modulators” (Array BioPharma Inc., priority 2010, dated 2014).
